Experimental data as given in publication PMC12419922, “Myristoylated Cathelicidin-DM Fused With ANG1-7: A Novel Self-Assembling Antimicrobial Peptide for the Treatment and Mechanism of Diabetic Infected Wounds” (Journal of Diabetes Research, 2025).
Where no end group is shown, it is not given here. The star is where a group is joined. Myristoyl = CCCCCCCCCCCCCC(=O)*

Legend:
[1] = tested on: S. aureus (ATCC 25923) infected diabetic wound; assay: Diabetic mouse S. aureus-infected full-thickness skin wound model; settings: for wound healing rate: 200 μL subcutaneously for 3 days, n = 4
Experimental: BALB/c male mice are from the Experimental Animal Center of Air Force Military Medical University. One group was fed a normal diet, and the other five groups were fed a high-fat diet for 4 weeks and then injected with 35 mg/kg streptozotocin (STZ, 35 mg/kg, Sigma) intraperitoneally for 3 days. […] After intraperitoneal injection of pentobarbital sodium (1%, […]), the dorsal hair of each animal was shaved off, and a circular full-thickness skin wound was created on the back using a 10-mm sterile mouse punch. S. aureus (ATCC 25923) was used to infect the wound site of mice, and a full-thickness wound infection model of mice was established. S. aureus was first resuscitated by operation in a biological ultra-clean table. A single colony was picked and incubated in LB medium at 37°C and 200 rpm. The concentration of the above S. aureus solution was adjusted to 1 × 10^8 CFU/mL to infect the wound of mice. Then, 24 h after S. aureus infection, three drugs, DM (20 μg/mL), ANG1-7 (20 μg/mL), and MYR-DM-ANG1-7 (20 μg/mL), were dissolved in PBS buffer, and 200 μL was injected subcutaneously for 3 days. After drug injection, the wound pus was diluted and coated with plate culture to observe the colony situation. The gross specimen imaging system (GF-7A, China) was used to record the wounds of mice on the same day and every other day after the formation of the wounds. The rubber ring with adhesive backing was used to fix the wound and prevent it from shrinking. ImageJ analysis software (NIH, Bethesda, MD, United States) was used to calculate and analyze the wound area. After 0, 3, 7, 10, and 14 days, the size of the infected wound was evaluated by rubber ring. The wound closure was measured as follows: the wound healing rate (%) = [W0 − Wn]/W0 × 100%, where W0 and Wn represent the wound area on the 0th and nth days, respectively (n = 4).
On the 14th day, the skin tissue was fixed in 4% paraformaldehyde solution, dehydrated, embedded in paraffin, sliced, and stained with hematoxylin–eosin (HE) and Masson. Skin tissue sections on Day 7 were immunofluorescently stained using rabbit anti-mouse CD31 (Cell Signaling Technology) and α-SMA (Cell Signaling Technology), and all stained sections were observed under the slide scanner (Aperio AT 2; Leica Biosystems, Germany).

HUVECs [2] = assay: MDA, thiobarbituric acid method; assay type: cell-based, human; settings: HUVEC supernatant, HG + LPS (HG + LPS increased by 1.65 times); n = 3
Experimental: The level of MDA was determined by the thiobarbituric acid (TBA) method. Briefly, 100 μL of cell supernatant was mixed with 200 μL of a 10% trichloroacetic acid solution of 0.67% TBA. The mixture was incubated at 95°C for 30 min, cooled on ice, and centrifuged at 12,000 × g at 4°C for 10 min. The absorbance of the supernatant was measured at 532 nm using an enzyme-labeled instrument. The experiments were repeated three times.

HUVECs [3] = assay: Reactive oxygen species, DCFH-DA flow cytometry; assay type: cell-based, human; settings: 20 μg/mL, compared with the HG + LPS group, p < 0.01
Experimental: To evaluate the antioxidant activity of MYR-DM-ANG1-7, HUVECs were cultured in DMEM supplemented with 10% FBS at 37°C and 5% CO2. After serum starvation for 24 h, the cells were divided into […] experimental groups: normal control group, high glucose + LPS, high glucose + DM group, and high glucose + MYR-DM-ANG1-7. After drug treatment, the cells were washed three times with ice-cold PBS and incubated with 10 μM DCFH-DA probe in serum-free medium at 37°C in the dark for 20 min. After removing the probe with PBS, the fluorescence intensity of 10,000 live cells was immediately measured by flow cytometry (excitation: 488 nm and emission: 530/30 nm). The data were expressed as the geometric mean fluorescence intensity (MFI) of each sample.

HUVECs [4] = assay: ELISA of IL-6 and TNF-α in culture supernatant; assay type: cell-based, human; settings: HG + LPS 24 h
Experimental: The HUVECs were seeded at 1 × 10^4 cells/well and cultured in 96-well plates. Following the indicated treatments, the levels of IL-6 and TNF-α in culture media were analyzed using ELISA according to the method of the kit. The experiments were repeated three times.

[5] = tested on: PI3K/AKT/eNOS signaling pathway, MasR in HUVECs; assay: Western blot of PI3K/AKT/eNOS signaling pathway and MasR; assay type: cell-based, human
Experimental: After the specified treatments, HUVECs were harvested using a cell scraper and lysed in cell lysis buffer (Wuhan Boster Biological Engineering Co., Ltd.) for 30 min at 4°C. Total protein was quantified using a BCA protein assay kit. Lysate (20 μg) from each sample was separated by 10% sodium dodecyl sulfate–polyacrylamide gel electrophoresis (SDS-PAGE) and then transferred to a polyvinylidene fluoride (PVDF) membrane. The membrane was blocked with a fresh blocking buffer containing 5% skim milk in Tris-buffered saline with 0.1% Tween 20 (TBS-T) for 2 h at room temperature and then incubated with primary antibodies against AKT (1:1000 dilution, #4691, Cell Signaling Technology), p-AKT (1:2000 dilution, #4060, Cell Signaling Technology), PI3K (1:1000 dilution, ab191606, Abcam), p-PI3K (1:1000 dilution, ab278545, Abcam), eNOS (1:1000 dilution, #32027, Cell Signaling Technology), p-eNOS (1:1000 dilution, ab215717, Abcam), and Mas (1:1000 dilution, #85003-1-RR, Proteintech) overnight at 4°C with shaking. The membrane was washed with TBS-T for 15 min and then incubated with horseradish peroxidase (HRP)–conjugated goat anti-rabbit secondary antibody (Wuhan Sanying Biotechnology Co., Ltd.) at a 1:2000 dilution in TBS-T and 3% skim milk for 90 min at room temperature. The membrane was washed three times with TBS-T, each for 15 min, and the immune reaction signals were detected using an ECL detection method. Protein bands were detected using a chemiluminescent gel imaging system (Bio-Rad Lab, China). Protein expression was quantitatively analyzed using ImageJ software (National Institutes of Health, Bethesda, MD, United States), and the experiment was repeated three times.

Substance: Myristoyl-SSRRKPCKGWLCKLKLRGGYTLIGSATNLNRPTYVRAGGGDRVYIHP (cysteines drawn unpaired) [MYR-DM-ANG1-7]
- wound healing rate ([1]; 7th day, 20 μg/mL in PBS): 72.77%
- wound healing rate ([1]; 10th day (diabetic control 40.26%), 20 μg/mL): 85.22%
- wound healing rate ([1]; 14th day (diabetic control 52.34%), 20 μg/mL): 95.66%
- pathological changes in the liver and kidneys ([1]; 14th day, H&E): no evidence of organ damage or pathological changes
- blood vessels, CD31 immunofluorescence ([1]; Day 7, compared with the diabetes infection group, p < 0.05): more blood vessels
- epidermis of wound tissue (HE staining) ([1]; Day 14, compared with the diabetes infection group): became thinner
- collagen deposition area (Masson staining) ([1]; Day 14, p < 0.0001): became larger
- fluorescence intensity of α-SMA ([1]; seventh day, vs the diabetes infection group, p < 0.01): significantly higher
- number of bacteria in the wound ([1]; wound pus plated on LB agar after 24 h of treatment, p < 0.0001): decreased
- secretion of MDA, decreased by (HUVECs [2]): 0.51 times
- reduction of intracellular reactive oxygen species level (HUVECs [3]): approximately 32%
- TNF-α level (HUVECs [4]): alleviate the decrease
- expression of membrane receptor MasR ([5]; after HG treatment and drug treatment): significantly increased
- phosphorylation level of eNOS ([5]; pretreatment then HG + LPS): increased
- phosphorylation level of AKT (p-AKT/total AKT) ([5]; pretreatment then HG + LPS (HG + LPS 0.4-fold), n = 3): 0.94 fold
- phosphorylation level of PI3K (p-PI3K/total PI3K) ([5]; pretreatment then HG + LPS (HG + LPS 0.8-fold), n = 3): 1.28 fold
